Data taken from the NIST ThermoML archive (doi:10.1021/je5010214).
Numbers after ± are expanded uncertainties.

Details: Liquid, Vibrating tube method

CCCCCCC [heptane]
Details | mass density [kg/m3]
303.15 K, 19974 kPa | 693.813 ± 0.88
303.15 K, 21920 kPa | 695.403 ± 0.88
303.15 K, 24992 kPa | 697.736 ± 0.9
303.15 K, 31958 kPa | 702.727 ± 0.93
303.15 K, 32862 kPa | 703.514 ± 0.93
303.15 K, 33112 kPa | 703.9 ± 0.93
303.15 K, 34081 kPa | 704.468 ± 0.94
303.15 K, 34980 kPa | 705.109 ± 0.94
303.15 K, 37951 kPa | 707.216 ± 0.96
303.15 K, 39904 kPa | 708.418 ± 0.97
303.15 K, 42014 kPa | 709.635 ± 0.98
303.15 K, 44896 kPa | 711.236 ± 0.99
303.15 K, 47951 kPa | 713.224 ± 1
303.15 K, 50065 kPa | 714.711 ± 1
303.15 K, 52073 kPa | 715.915 ± 1
303.15 K, 55074 kPa | 717.452 ± 1.1
303.15 K, 57989 kPa | 719.654 ± 1.1
303.15 K, 59979 kPa | 720.537 ± 1.1
303.15 K, 62052 kPa | 721.855 ± 1.1
303.15 K, 64988 kPa | 723.925 ± 1.1
303.15 K, 66030 kPa | 724.328 ± 1.1
303.16 K, 2964.9 kPa | 678.337 ± 0.82
303.16 K, 7045.6 kPa | 682.343 ± 0.83
303.16 K, 8858.2 kPa | 683.448 ± 0.84
303.16 K, 10014 kPa | 684.334 ± 0.84
303.16 K, 18021 kPa | 692.198 ± 0.87
303.16 K, 27933 kPa | 699.906 ± 0.91
303.16 K, 29990 kPa | 701.007 ± 0.92
308.15 K, 105 kPa | 671.006 ± 0.81
308.15 K, 274.3 kPa | 671.143 ± 0.81
308.15 K, 494.1 kPa | 671.318 ± 0.81
308.15 K, 803.3 kPa | 671.687 ± 0.81
308.15 K, 1039.5 kPa | 672.093 ± 0.82
308.15 K, 1916.7 kPa | 672.909 ± 0.82
308.15 K, 2980.7 kPa | 674.097 ± 0.82
308.15 K, 4990.2 kPa | 676.132 ± 0.82
308.15 K, 6964.9 kPa | 678.143 ± 0.83
308.15 K, 8864.3 kPa | 679.887 ± 0.84
308.15 K, 9863.1 kPa | 680.761 ± 0.84
308.15 K, 12009 kPa | 682.857 ± 0.85
308.15 K, 17850 kPa | 687.815 ± 0.87
308.15 K, 19930 kPa | 689.488 ± 0.88
308.15 K, 21988 kPa | 691.177 ± 0.89
308.15 K, 25012 kPa | 693.658 ± 0.9
308.15 K, 27955 kPa | 695.718 ± 0.91
308.15 K, 29906 kPa | 696.905 ± 0.92
308.15 K, 31929 kPa | 698.302 ± 0.93
308.15 K, 32886 kPa | 699.002 ± 0.94
308.15 K, 32941 kPa | 698.96 ± 0.94
308.15 K, 34011 kPa | 700.438 ± 0.94
308.15 K, 37971 kPa | 703.176 ± 0.96
308.15 K, 40011 kPa | 704.309 ± 0.97
308.15 K, 41998 kPa | 705.614 ± 0.98
308.15 K, 45017 kPa | 707.854 ± 1
308.15 K, 48033 kPa | 709.906 ± 1
308.15 K, 50044 kPa | 711.265 ± 1
308.15 K, 51977 kPa | 712.584 ± 1
308.15 K, 54982 kPa | 714.563 ± 1.1
308.15 K, 58009 kPa | 716.265 ± 1.1
308.15 K, 60030 kPa | 717.688 ± 1.1
308.15 K, 61985 kPa | 718.959 ± 1.1
308.15 K, 64980 kPa | 720.569 ± 1.1
308.16 K, 15069 kPa | 685.368 ± 0.86
308.16 K, 34949 kPa | 701.078 ± 0.95
308.16 K, 66088 kPa | 721.543 ± 1.1
313.15 K, 100.8 kPa | 666.87 ± 0.81
313.15 K, 316 kPa | 667.185 ± 0.81
313.15 K, 569.6 kPa | 667.234 ± 0.81
313.15 K, 1088.8 kPa | 668.002 ± 0.82
313.15 K, 2109.7 kPa | 669.053 ± 0.82
313.15 K, 3137 kPa | 670.192 ± 0.82
313.15 K, 5111.8 kPa | 672.198 ± 0.83
313.15 K, 6921.8 kPa | 674.169 ± 0.83
313.15 K, 9210.7 kPa | 676.379 ± 0.84
313.15 K, 10209 kPa | 677.309 ± 0.84
313.15 K, 12020 kPa | 679.079 ± 0.85
313.15 K, 15059 kPa | 681.665 ± 0.86
313.15 K, 17921 kPa | 684.308 ± 0.87
313.15 K, 19932 kPa | 686.1 ± 0.88
313.15 K, 22058 kPa | 687.733 ± 0.89
313.15 K, 24862 kPa | 690.068 ± 0.9
313.15 K, 27869 kPa | 692.385 ± 0.91
313.15 K, 29957 kPa | 693.806 ± 0.92
313.15 K, 32107 kPa | 695.43 ± 0.93
313.15 K, 32980 kPa | 696.141 ± 0.94
313.15 K, 33002 kPa | 696.147 ± 0.94
313.15 K, 33981 kPa | 697.086 ± 0.94
313.15 K, 35045 kPa | 697.948 ± 0.95
313.15 K, 38127 kPa | 700.098 ± 0.96
313.15 K, 41978 kPa | 702.778 ± 0.99
313.15 K, 44946 kPa | 704.758 ± 1
313.15 K, 47880 kPa | 706.851 ± 1
313.15 K, 52097 kPa | 709.812 ± 1
313.15 K, 54924 kPa | 711.549 ± 1.1
313.15 K, 58082 kPa | 713.474 ± 1.1
313.15 K, 59932 kPa | 714.707 ± 1.1
313.15 K, 62004 kPa | 716.103 ± 1.1
313.15 K, 64954 kPa | 717.814 ± 1.1
313.15 K, 66113 kPa | 718.367 ± 1.1
313.16 K, 860.7 kPa | 667.671 ± 0.82
313.16 K, 39997 kPa | 701.327 ± 0.97
313.16 K, 50021 kPa | 708.33 ± 1
318.15 K, 100.7 kPa | 662.812 ± 0.81
318.15 K, 336.3 kPa | 663.228 ± 0.81
318.15 K, 1105.7 kPa | 663.94 ± 0.82
318.15 K, 1929.1 kPa | 664.905 ± 0.82
318.15 K, 2933.2 kPa | 665.972 ± 0.82
318.15 K, 8989 kPa | 672.331 ± 0.84
318.15 K, 10074 kPa | 673.533 ± 0.84
318.15 K, 11896 kPa | 675.253 ± 0.85
318.15 K, 18102 kPa | 681.046 ± 0.87
318.15 K, 19985 kPa | 682.727 ± 0.88
318.15 K, 22094 kPa | 684.679 ± 0.89
318.15 K, 29998 kPa | 691.196 ± 0.93
318.15 K, 33016 kPa | 693.259 ± 0.94
318.15 K, 33180 kPa | 693.331 ± 0.94
318.15 K, 37838 kPa | 697.046 ± 0.97
318.15 K, 40092 kPa | 698.439 ± 0.98
318.15 K, 44884 kPa | 701.561 ± 1
318.15 K, 47944 kPa | 703.663 ± 1
318.15 K, 54944 kPa | 708.215 ± 1.1
318.15 K, 57972 kPa | 710.506 ± 1.1
318.15 K, 59922 kPa | 711.605 ± 1.1
318.15 K, 65022 kPa | 714.898 ± 1.1
318.15 K, 66028 kPa | 715.438 ± 1.1
318.16 K, 590.9 kPa | 663.443 ± 0.81
318.16 K, 891 kPa | 663.766 ± 0.82
318.16 K, 5020.8 kPa | 668.355 ± 0.83
318.16 K, 6926.7 kPa | 670.309 ± 0.83
318.16 K, 14800 kPa | 678.075 ± 0.86
318.16 K, 24873 kPa | 686.865 ± 0.9
318.16 K, 27909 kPa | 689.38 ± 0.92
318.16 K, 31957 kPa | 692.414 ± 0.94
318.16 K, 34110 kPa | 694.119 ± 0.95
318.16 K, 35048 kPa | 694.934 ± 0.95
318.16 K, 41996 kPa | 699.6 ± 0.99
318.16 K, 49950 kPa | 705.2 ± 1
318.16 K, 52037 kPa | 706.412 ± 1
318.16 K, 61930 kPa | 712.85 ± 1.1
323.15 K, 102.3 kPa | 658.378 ± 0.81
323.15 K, 296.1 kPa | 658.71 ± 0.81
323.15 K, 528.4 kPa | 658.782 ± 0.81
323.15 K, 994.2 kPa | 659.429 ± 0.82
323.15 K, 2006.9 kPa | 660.61 ± 0.82
323.15 K, 2966.6 kPa | 661.806 ± 0.82
323.15 K, 4996.2 kPa | 663.968 ± 0.83
323.15 K, 7042.1 kPa | 666.276 ± 0.83
323.15 K, 9029.9 kPa | 667.858 ± 0.84
323.15 K, 10090 kPa | 669.742 ± 0.84
323.15 K, 11914 kPa | 670.973 ± 0.85
323.15 K, 15111 kPa | 674.373 ± 0.86
323.15 K, 17981 kPa | 677.251 ± 0.87
323.15 K, 20038 kPa | 678.71 ± 0.88
323.15 K, 21995 kPa | 680.737 ± 0.89
323.15 K, 24993 kPa | 683.213 ± 0.9
323.15 K, 32079 kPa | 689.177 ± 0.94
323.15 K, 33103 kPa | 689.972 ± 0.94
